In ChEMBL document CHEMBL4420066, “Aryl amine substituted quinoxaline used as anticancer drugs” (2017):
The source made the active and inactive calls. The rule behind the calls is not given here.

Experiments:
HA22T cell line [1] = test: Induction of apoptosis in human HA22T cells assessed as accumulation at subG1 phase at 0.5 to 4 uM by flow cytometry; format: functional, cell-based
SK-HEP1 [2] = test: Induction of apoptosis in human SKHEP1 cells assessed as accumulation at subG1 phase at 0.5 to 4 uM by flow cytometry; format: functional, cell-based
HA22T cell line [3] = test: Induction of apoptosis in human HA22T cells >= 2 uM incubated for 48 hrs by annexin-V-FITC staining based by flow cytometry relative to control; format: functional
SK-HEP1 [4] = test: Induction of apoptosis in human SKHEP1 cells >= 2 uM incubated for 48 hrs by annexin-V-FITC staining based by flow cytometry relative to control; format: functional
HA22T cell line [5] = test: Induction of necrosis in human HA22T cells >= 2 uM incubated for 48 hrs by annexin-V-FITC staining based by flow cytometry relative to control; format: functional
Hep 3B2 [6] = test: Induction of apoptosis in human Hep3B cells assessed as caspase-9 activation at 0.5 to 4 uM incubated for 48 hrs by Western blotting analysis; format: functional, cell-based
SK-HEP1 [7] = test: Induction of apoptosis in human SKHEP1 cells assessed as caspase-9 activation at 0.5 to 4 uM incubated for 48 hrs by Western blotting analysis; format: functional, cell-based
HA22T cell line [8] = test: Induction of apoptosis in human HA22T cells assessed as caspase-3 activation at 0.5 to 4 uM incubated for 48 hrs by Western blotting analysis; format: functional, cell-based
Hep 3B2 [9] = test: Induction of apoptosis in human Hep3B cells assessed as caspase-3 activation at 0.5 to 4 uM incubated for 48 hrs by Western blotting analysis; format: functional, cell-based
SK-HEP1 [10] = test: Induction of apoptosis in human SKHEP1 cells assessed as caspase-3 activation at 0.5 to 4 uM incubated for 48 hrs by Western blotting analysis; format: functional, cell-based
Hep 3B2 [11] = test: Induction of apoptosis in human Hep3B cells assessed as induction of PARP cleavage at 0.5 to 4 uM incubated for 48 hrs by Western blotting analysis; format: functional, cell-based
Hep 3B2 [12] = test: Induction of apoptosis in human Hep3B cells assessed as induction of PARP cleavage at 2 uM in presence of caspase inhibitor Z-VAD-fmk incubated for 48 hrs by Western blotting analysis; format: functional, cell-based
Homo sapiens [13] = species: Homo sapiens; test: Induction of apoptosis in human PLC5 cells at 2 uM in presence of caspase inhibitor Z-VAD-fmk incubated for 48 hrs by annexin-V-FITC staining based by flow cytometry; format: functional, cell-based
Hep 3B2 [14] = test: Induction of apoptosis in human Hep3B cells assessed as induction of DNA fragmentation at 1 uM incubated for 24 hrs by ELISA; format: functional, cell-based
HA22T cell line [15] = test: Inhibition of CIP2A protein expression in human HA22T cells assessed as CIP2A protein expression ratio level at 2 uM by Western blotting analysis (Rvb =1); format: functional
HA22T cell line [16] = test: Inhibition of CIP2A protein expression in human HA22T cells assessed as CIP2A protein expression ratio level at 4 uM by Western blotting analysis (Rvb =1); format: functional
Hep 3B2 [17] = test: Inhibition of CIP2A protein expression in human Hep3B cells assessed as CIP2A protein expression ratio level at 1 uM by Western blotting analysis (Rvb =1); format: functional
Hep 3B2 [18] = test: Inhibition of CIP2A protein expression in human Hep3B cells assessed as CIP2A protein expression ratio level at 4 uM by Western blotting analysis (Rvb =1); format: functional
[19] = Inhibition of CIP2A protein expression in human PLC5 cells assessed as CIP2A protein expression ratio level at 0.5 uM by Western blotting analysis (Rvb =1); format: functional
[20] = Inhibition of CIP2A protein expression in human PLC5 cells assessed as CIP2A protein expression ratio level at 1 uM by Western blotting analysis (Rvb =1); format: functional
SK-HEP1 [21] = test: Inhibition of CIP2A protein expression in human SKHEP1 cells assessed as CIP2A protein expression ratio level at 0.5 uM by Western blotting analysis (Rvb =1); format: functional
SK-HEP1 [22] = test: Inhibition of CIP2A protein expression in human SKHEP1 cells assessed as CIP2A protein expression ratio level at 1uM by Western blotting analysis (Rvb =1); format: functional
SK-HEP1 [23] = test: Inhibition of CIP2A protein expression in human SKHEP1 cells assessed as CIP2A protein expression ratio level at 4 uM by Western blotting analysis (; format: functional
Homo sapiens [24] = species: Homo sapiens; test: Inhibition of CIP2A protein expression in human PLC5 cells by Western blotting analysis; format: functional, cell-based
[25] = target: T1, Serine/threonine-protein kinase AKT (Homo sapiens) (UniProt P31751+Q9Y243+P31749); test: Inhibition of Akt phosphorylation at S473 residue in human Hep3B cells by Western blotting analysis; format: cell-based
[26] = target: T1, Serine/threonine-protein kinase AKT (Homo sapiens); test: Inhibition of Akt phosphorylation at S473 residue in human HA22T cells by Western blotting analysis; format: cell-based
Homo sapiens [27] = species: Homo sapiens; test: Activation of PP2A in human Hep3B cells assessed as increase in protein phosphatase activity at 1 uM incubated for 24 hrs using phosphopeptide substrate incubated for 10 mins by malachite green-phosphate complex assay; format: cell-based
Homo sapiens [28] = species: Homo sapiens; test: Activation of PP2A in human SKHEP1 cells assessed as increase in protein phosphatase activity at 1 uM incubated for 24 hrs using phosphopeptide substrate incubated for 10 mins by malachite green-phosphate complex assay; format: cell-based
SK-HEP1 [29] = test: Inhibition of PP2A-A protein expression in human SKHEP1 cells at 1 uM incubated for 24 hrs by Western blotting analysis; format: functional, cell-based
Hep 3B2 [30] = test: Inhibition of PP2A-C protein expression in human Hep3B cells at 1 uM incubated for 24 hrs by Western blotting analysis; format: functional, cell-based
HA22T cell line [31] = test: Inhibition of PP2A-C protein expression in human HA22T cells at 1 uM incubated for 24 hrs by Western blotting analysis; format: functional, cell-based
Homo sapiens [32] = species: Homo sapiens; test: Inhibition of human CIP2A gene promoter activity in human PLC5 cells by luciferase reporter gene assay; format: cell-based
Homo sapiens [33] = species: Homo sapiens; test: Inhibition of human CIP2A gene promoter -110/-1 mutant construct activity in human PLC5 cells by luciferase reporter gene assay; format: cell-based
Homo sapiens [34] = species: Homo sapiens; test: Inhibition of human CIP2A gene promoter in human PLC5 cells assessed as inhibition of ELK1 protein expression at 2 uM by Western blotting analysis; format: cell-based
Homo sapiens [35] = species: Homo sapiens; test: Induction of apoptosis in human PLC5 cells with ectopic overexpression of GFP-tagged Elk-1 at 2 uM incubated for 24 hrs by annexin-V-FITC staining based by flow cytometry; format: functional, cell-based
Mus musculus [36] = test: Activation of PP2A activity in tumor of human PLC5 cells xenografted in mouse at 10 mg/kg dosed for 4 weeks; format: functional, organism-based
Mus musculus [37] = test: Suppression of Akt phosphorylation at S473 residue in tumor of human PLC5 cells xenografted in mouse at 10 mg/kg dosed for 4 weeks by Western blot analysis; format: functional, organism-based
Homo sapiens [38] = species: Homo sapiens; test: Cytotoxicity against human PLC5 cells assessed as reduction in cell viability at 0.5 to 4 uM incubated for 48 hrs by MTT assay; format: functional, cell-based
Homo sapiens [39] = species: Homo sapiens; test: Activation of PP2A in human Hep3B cells assessed as minimal concentration causing increase in protein phosphatase activity incubated for 24 hrs using phosphopeptide substrate incubated for 10 mins by malachite green-phosphate complex assay; format: cell-based

T1 sequence (P31749 whole entry, looked up): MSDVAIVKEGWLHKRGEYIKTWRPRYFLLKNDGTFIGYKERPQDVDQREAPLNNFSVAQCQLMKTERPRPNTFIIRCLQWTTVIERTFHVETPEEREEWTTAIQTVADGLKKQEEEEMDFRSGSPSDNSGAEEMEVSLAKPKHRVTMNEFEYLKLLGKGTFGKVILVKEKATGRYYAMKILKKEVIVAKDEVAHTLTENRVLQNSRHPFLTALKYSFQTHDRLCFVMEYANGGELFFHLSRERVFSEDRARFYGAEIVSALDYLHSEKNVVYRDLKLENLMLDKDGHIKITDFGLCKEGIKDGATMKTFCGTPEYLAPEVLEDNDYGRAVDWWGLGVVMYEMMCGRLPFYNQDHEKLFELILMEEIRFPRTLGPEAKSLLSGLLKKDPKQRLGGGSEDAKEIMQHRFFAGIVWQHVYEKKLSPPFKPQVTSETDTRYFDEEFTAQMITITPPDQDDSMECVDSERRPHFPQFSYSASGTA
T1 sequence (P31751 whole entry, looked up): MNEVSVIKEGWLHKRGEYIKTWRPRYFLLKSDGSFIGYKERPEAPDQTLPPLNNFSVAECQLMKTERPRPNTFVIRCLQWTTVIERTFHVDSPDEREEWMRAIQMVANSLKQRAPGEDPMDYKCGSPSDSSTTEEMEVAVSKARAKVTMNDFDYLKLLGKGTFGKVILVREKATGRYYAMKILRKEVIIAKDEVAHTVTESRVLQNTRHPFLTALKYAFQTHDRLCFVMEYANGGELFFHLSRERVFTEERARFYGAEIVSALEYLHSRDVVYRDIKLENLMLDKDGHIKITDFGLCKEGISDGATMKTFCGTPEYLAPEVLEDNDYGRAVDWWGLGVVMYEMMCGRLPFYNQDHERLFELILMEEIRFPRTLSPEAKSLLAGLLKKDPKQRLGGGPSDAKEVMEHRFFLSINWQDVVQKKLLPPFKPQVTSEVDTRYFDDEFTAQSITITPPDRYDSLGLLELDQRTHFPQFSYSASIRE
T1 sequence (Q9Y243 whole entry, looked up): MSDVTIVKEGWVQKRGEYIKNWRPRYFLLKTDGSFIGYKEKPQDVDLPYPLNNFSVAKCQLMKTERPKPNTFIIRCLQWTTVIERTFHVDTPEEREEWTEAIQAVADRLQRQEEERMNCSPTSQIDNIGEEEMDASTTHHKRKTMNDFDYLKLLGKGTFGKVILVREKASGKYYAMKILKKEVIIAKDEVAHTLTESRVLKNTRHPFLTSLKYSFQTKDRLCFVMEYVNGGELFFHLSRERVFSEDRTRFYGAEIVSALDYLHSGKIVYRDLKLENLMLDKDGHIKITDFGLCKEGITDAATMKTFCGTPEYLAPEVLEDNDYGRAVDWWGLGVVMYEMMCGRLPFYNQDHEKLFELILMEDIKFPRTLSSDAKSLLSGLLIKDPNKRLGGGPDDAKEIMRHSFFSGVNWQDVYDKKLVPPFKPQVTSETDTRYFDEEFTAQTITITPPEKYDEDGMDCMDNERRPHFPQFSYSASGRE

C#Cc1cccc(Nc2nc3ccccc3nc2Nc2cccc(C#C)c2)c1
Activity (HA22T cell line [1]): Active | Activity (SK-HEP1 [2]): Active | Activity (HA22T cell line [3]): 50% | Activity (SK-HEP1 [4]): 50% | Activity (HA22T cell line [5]): 50% | Activity (Hep 3B2 [6]): Dose-dependent effect | Activity (SK-HEP1 [7]): Dose-dependent effect | Activity (HA22T cell line [8]): Dose-dependent effect | Activity (Hep 3B2 [9]): Dose-dependent effect | Activity (SK-HEP1 [10]): Dose-dependent effect | Activity (Hep 3B2 [11]): Dose-dependent effect | Activity (Hep 3B2 [12]): inactive | Activity (Homo sapiens [13]): inactive | Activity (Hep 3B2 [14]): Active | Ratio (HA22T cell line [15]): 0.36 | Ratio (HA22T cell line [16]): 0.01 | Ratio (Hep 3B2 [17]): 0.57 | Ratio (Hep 3B2 [18]): 0.13 | Ratio [19]: 0.84 | Ratio [20]: 0.28 | Ratio (SK-HEP1 [21]): 0.73 | Ratio (SK-HEP1 [22]): 0.32 | Ratio (SK-HEP1 [23]): 0.1 | inhibition (Homo sapiens [24]): Dose-dependent effect | inhibition [25]: Dose-dependent effect | inhibition [26]: Dose-dependent effect | Activity (Homo sapiens [27]): Active | Activity (Homo sapiens [28]): Active | inhibition (SK-HEP1 [29]): inactive | inhibition (Hep 3B2 [30]): inactive | inhibition (HA22T cell line [31]): inactive | inhibition (Homo sapiens [32]): Dose-dependent effect | inhibition (Homo sapiens [33]): inactive | inhibition (Homo sapiens [34]): Active | Activity (Homo sapiens [35]): inactive | Activity (Mus musculus [36]): Active | Activity (Mus musculus [37]): Active | Activity (Homo sapiens [38]): Active | MEC (Homo sapiens [39]): 100 to 200 nM
